According to patent US20230406850A1, “CRYSTALLINE FORM OF HETEROCYCLIC COMPOUND, PREPARATION METHOD THEREFOR AND APPLICATION THEREOF” (WUHAN LL SCIENCE AND TECHNOLOGY DEVELOPMENT CO., LTD., priority 2020, published 2023):

Legend:
[1] = tested on: Dunkin Hartley guinea pigs, citric acid induced cough; experiment: Simple citric acid cough model; assay type: in vivo, guinea pig; conditions: 30 mg/kg
Protocol: Male Dunkin Hartley guinea pigs (300-350 g) were placed in the animal atomization box, the door of the atomization box was closed, and the ultrasonic atomizer (Guangdong Yuehua) was opened at the same time, at the maximum atomization amount (about 2 mL/min) 17.5% citric acid gas was filled with the atomization box, which was continuously atomized for 20 seconds, and the cough performance of the animals was continuously observed within 10 min after the atomization started. During the 10-minute observation period, manual counting of coughs was required, and the number of coughs was judged according to the guinea pig's coughing posture, such as abdominal twitching, mouth opening, head down hooking, etc., as well as the sound of coughing, the number of coughs in the first 5 minutes and the number of coughs in the first 10 minutes were recorded, and the cough incubation period of guinea pigs was also recorded, that is, the time from citric acid induction to the first cough as well as the sound of coughing.

[2] = target: T1, hP2X2/3 (heterodimeric receptors formed by human purinergic P2X receptor subtypes 2 and 3) (Homo sapiens, UniProt P56373+Q9UBL9); experiment: FLIPR intracellular calcium assay, hP2X2/3 in HEK293 cells (selectivity); assay type: cell-based
T1 construct: expressed in transfected cells
T1 sequence (P56373 1-397): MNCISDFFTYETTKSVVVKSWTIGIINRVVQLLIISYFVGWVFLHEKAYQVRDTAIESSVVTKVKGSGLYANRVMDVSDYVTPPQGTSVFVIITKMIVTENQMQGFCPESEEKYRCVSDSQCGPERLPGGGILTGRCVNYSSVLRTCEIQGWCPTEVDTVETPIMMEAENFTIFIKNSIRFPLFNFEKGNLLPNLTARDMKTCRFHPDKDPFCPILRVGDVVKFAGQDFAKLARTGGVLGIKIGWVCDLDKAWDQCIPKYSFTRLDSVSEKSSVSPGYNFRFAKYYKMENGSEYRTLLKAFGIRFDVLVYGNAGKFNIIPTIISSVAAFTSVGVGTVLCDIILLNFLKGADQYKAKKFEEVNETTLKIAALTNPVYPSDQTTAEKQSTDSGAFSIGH
T1 sequence (Q9UBL9 1-471): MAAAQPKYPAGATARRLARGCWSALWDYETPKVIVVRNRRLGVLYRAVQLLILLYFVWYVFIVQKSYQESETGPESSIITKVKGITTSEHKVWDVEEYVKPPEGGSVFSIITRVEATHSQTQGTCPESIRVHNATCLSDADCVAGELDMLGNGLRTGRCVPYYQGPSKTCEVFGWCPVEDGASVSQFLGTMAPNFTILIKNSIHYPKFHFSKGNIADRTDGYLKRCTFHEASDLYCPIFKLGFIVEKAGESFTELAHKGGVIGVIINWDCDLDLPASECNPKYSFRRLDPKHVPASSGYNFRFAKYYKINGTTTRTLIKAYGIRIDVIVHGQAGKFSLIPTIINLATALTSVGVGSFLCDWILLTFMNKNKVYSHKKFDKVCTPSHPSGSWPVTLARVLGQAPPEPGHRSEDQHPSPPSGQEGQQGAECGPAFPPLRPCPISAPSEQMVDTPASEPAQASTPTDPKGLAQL
Protocol: 18-24 hours before the FLIPR experiment, cells were seeded into 96 wells (25000 cells/well) ata density of 250000 cells/mL and incubated overnight in a cell culture incubator. […] 75 μL 1 mM Fluo-4 AM fluorescent dye (Thermo, F14202) was added to each well, and the dye load was incubated for 1.0 hour at 37° C. Then, the 96-well plate was washed once with buffer, and 50 μL of buffer containing test compound or vehicle was added to each well, and it was incubated at room temperature for 30 minutes. […] Then agonist (BZ-ATP (Sigma, B6396) at a final concentration of 5 μM) or vehicle (ultrapure water) was added at 50 μL/well, the fluorescence value was measured at 1-second intervals for 2 minutes, and finally the output fluorescence was counted analysis.

SD rats = experiment: Taste disorder test by double bottle method; assay type: in vivo, rat; conditions: for Quinine/tap water * 100%: single intraperitoneal injection, 15 minutes
Text: SPF male SD rats (6-8 weeks) received 3 days of adaptive drinking water training immediately after storage, and the specific training content was that animals were kept in a single cage, and two bottles of water (both common drinking water) were placed in each cage, and during the adaptive training, water treatment was forbidden all night (the drinking water bottle was removed), and drinking water was given again at 8:30 am to 5:30 pm, and then this cycle lasted for 3 days, and the two bottles of water were changed every day, and during the whole adaptive training period, animals were ate freely. All animal water bottles were removed 20 hours before the formal experiment, and water was banned until the time of the experiment. During the formal experiment, all animals were randomly divided into groups, and the test compound or vehicle was given before the water supply was renewed, and the drug was given by single intraperitoneal injection, and the administration time was determined according to the Tmax of the test compound. Then, the animals were placed in a single cage, and given two bottles of drinking water, one bottle of ordinary drinking water and one bottle of 0.3 mM tonic water, and the water consumption of animals was observed within 15 minutes, and the quinine water consumption/ordinary water consumption was statistically analyzed, with positive compound 2 as the positive control of taste disorder.

[3] = target: T2, hP2X3 (human purinergic P2X receptor subtype 3) (Homo sapiens, UniProt P56373); experiment: FLIPR intracellular calcium assay, hP2X3 in HEK293 cells; assay type: cell-based; conditions: agonist BZ-ATP 2.5 μM, read-out: P2X3 IC50
T2 construct: expressed in transfected cells
T2 sequence (P56373 1-397): T1 sequence (P56373 1-397)
Protocol: 18-24 hours before the FLIPR experiment, cells were seeded into 384 wells (10,000 cells/well) at a density of 400,000 cells/mL and incubated overnight in a cell culture incubator. […] 10 μL of test compound (dissolved at 10 mM in DMSO and serially diluted with buffer) or vehicle was then added to each well and allowed to equilibrate for 30 min at room temperature.

[4] = tested on: Dunkin Hartley guinea pigs, ATP-citric acid induced cough; experiment: ATP-citric acid cough model; assay type: in vivo, guinea pig
Protocol: Male Dunkin Hartley guinea pigs (300-400 g) were placed in a whole-body volume scanning box for 3 to 5 minutes, and then subjected to ATP atomization for 2 minutes, with an interval of 3 minutes, followed by citric acid atomization for 5 minutes, and all atomization rates were about 300 μL/min. From citrate acid atomization, cough times and cough latency of animals within 10 min were recorded. During the 10-minute observation period, manual counting of coughs was required, and the number of coughs was judged according to the guinea pig's coughing posture, such as abdominal twitching, mouth opening, head down hooking, etc., as well as the sound of coughing, the number of coughs in the first 10 minutes were recorded, and the cough incubation period of guinea pigs was also recorded.
Animals were divided into vehicle group, dextromethorphan (63 mg/kg) positive group, AF-219 (30 mg/kg) positive group and compound 172 (3, 10, 30 mg/kg) administration group of Embodiment. All compounds were administered orally, except dextromethorphan, which was administered 40 minutes before ATP-citric acid exposure, and the rest compounds were […].

`COC(=O)N1CCO[C@@H](Cc2c(-c3c(F)cc(S(N)(=O)=O)cc3F)nc3cc(Cl)ccn23)C1` [Compound 172, methyl (S)-2-((7-chloro-2-(2,6-difluoro-4-sulfamoylphenyl)imidazo[1,2-a]pyridin-3-yl)methyl)morpholine-4-carboxylate] was tested, and the efficacy in words [1] was “comparable to the efficacy of positive compound”, the IC50 ([2]; HEK293 cells, agonist BZ-ATP 5 μM) was > 60 µM and the Selectivity multiple ([2]; P2X2/3 versus P2X3) was >85714. For the same molecule, the “Quinine/tap water * 100%” value (SD rats; 5 mg/kg) was 7.05%, the “Quinine/tap water * 100%” value (SD rats; 10 mg/kg) was 7.41% and the “Quinine/tap water * 100%” value (SD rats; 20 mg/kg) was 8.66%. For the same molecule, the “effect on quinine/water ratio in words” value (SD rats; 5, 10 and 20 mg/kg) was “no obvious effect on the quinine/water ratio of rats”, the IC50 [3] was 0.7 nM and the “Cough suppression rate vs Vehicle” value ([4]; 3 mg/kg oral) was 30.80%. For the same molecule, the “Cough suppression rate vs Vehicle” value ([4]; 10 mg/kg oral) was 51.20%, the “Cough suppression rate vs Vehicle” value ([4]; 30 mg/kg oral) was 52.80% and the “effect on number of coughs compared with the vehicle group, in words” value ([4]; guinea pig, in vivo) was “significantly reduce the number of coughs”.
